US5905089A, “Use of sesquiterpene lactones for treatment of severe inflammatory disorders” (Board of Supervisors of Louisiana State University and …, priority 1998, dated 1999)
Blank lines part the entries; values can stand above or below the compound they belong to.

Tests used:
[1] = test system: IL-1α; test: IL-1α expression in LPS-stimulated RAW 264.7 cells (Western blot); format: cell-based, murine; conditions: parthenolide 1 μg/ml with DTT 100 μM, 2-ME 50 μM or Cys 150 μM; LPS 1 μg/ml, 8h; FIG. 6B
Method: (§1) Rat (Sprague-Dawley) alveolar macrophages were collected by broncho-alveolar lavage as described by Lee et al., J. Biol. Chem., vol. 267, pp. 25934-25938 (1992). The murine macrophage cell line RAW 264.7 (ATCC no. TIB-71) was cultured in Dubecco's modified Eagle's medium (DMEM) containing 10% heat-inactivated fetal bovine serum (FBS, Intergen). For the cyclooxygenase activity assay, cells were seeded in 24 well plates, and after near-confluency, cells were treated with aspirin (250 μM) for 2.5h to inactivate endogenous cyclooxygenase. […] COX activity was determined by measuring prostaglandin E2 concentrations in cells incubated with arachidonic acid (30 μM) for 10 minutes as described in Lee et al. (1992).
(§2) The protein levels of COX-2 and GAPDH were assessed by Western blot analysis using polyclonal antibodies as described in Lee et al. (1992). Polyclonal antibodies for IL-1α and JNK-1 were purchased from Genzyme and Santa Cruz Biotech, respectively.
(§3) Parthenolide suppressed LPS-stimulated tyrosine phosphorylation of various proteins in RAW 264.7 cells as assessed by antiphosphotyrosine immunoblot, depicted in FIG. 5A. This inhibition was correlated with the suppressed expression of COX-2 and IL-1α. RAW 264.7 cells were pretreated with parthenolide in various concentrations or with herbimycin A (0.5 μg/ml) for 3h, and then stimulated with LPS (1 μg/ml) in the presence of the inhibitors for 30 min. […] Therefore, the extent of tyrosine phosphorylation of JNK-1 was assessed by the electrophoretic mobility shift of phosphorylated JNK-1 as shown in FIG. 5B. Parthenolide inhibited tyrosine phosphorylation of JNK-1. Another protein tyrosine kinase inhibitor, herbimycin A ([…]), inhibited tyrosine phosphorylation of the MAPK subfamily.
(§4) The mechanism by which parthenolide inhibits protein tyrosine phosphorylation is not currently known. It has been speculated that the tyrosine kinase inhibitor herbimycin A inactivates p60^v-src kinase by irreversibly binding to the sulphydryl (SH) groups of p60^v-src kinase. Y. Uehara et al., Biochem. Biophys. Res. Commun., vol. 163, pp. 803-809 (1989). The inactivation by herbimycin may occur through conjugation between highly polarized double bonds in the benzoquinone moiety of herbimycin A and the SH group of sulphydryl compounds. Without wishing to be bound by this theory, the α-methylenebutyrolactone in parthenolide may interact with biological nucleophiles such as sulphydryl groups. Indeed, pretreating cells with sulphydryl compounds abrogated the inhibitory effect of parthenolide on LPS-induced activation of MAPKs as shown in FIG. 6A. […]

[2] = test system: COX-2; test: COX-2 expression in LPS-stimulated RAW 264.7 cells (Western blot); format: cell-based, murine; conditions: parthenolide 1 μg/ml with DTT 100 μM, 2-ME 50 μM or Cys 150 μM; LPS 1 μg/ml, 8h; FIG. 6B
Method: as §1, §2, §3, §4

[3] = test system: MAPKs; test: Tyrosine phosphorylation / activation of MAPKs in RAW 264.7 cells; format: cell-based, murine; conditions: for effect on parthenolide inhibition of LPS-induced activation of MAPKs: parthenolide 1 μg/ml with DTT 100 μM, 2-ME 50 μM or Cys 150 μM, LPS 1 μg/ml, 30 min, FIG. 6A
Method: as §1
(§5) This detection technique was carried out essentially as described in Chanmugan et al. (1995) using 4G10 monoclonal antiphosphotyrosine antibody (UBI) and the ECL detection system (Amersham).
as §3
The mechanism by which parthenolide inhibits protein tyrosine phosphorylation is not currently known. It has been speculated that the tyrosine kinase inhibitor herbimycin A inactivates p60^v-src kinase by irreversibly binding to the sulphydryl (SH) groups of p60^v-src kinase. Y. Uehara et al., Biochem. Biophys. Res. Commun., vol. 163, pp. 803-809 (1989). The inactivation by herbimycin may occur through conjugation between highly polarized double bonds in the benzoquinone moiety of herbimycin A and the SH group of sulphydryl compounds. Without wishing to be bound by this theory, the α-methylenebutyrolactone in parthenolide may interact with biological nucleophiles such as sulphydryl groups. Indeed, pretreating cells with sulphydryl compounds abrogated the inhibitory effect of parthenolide on LPS-induced activation of MAPKs as shown in FIG. 6A. In FIG. 6, RAW 264.7 cells were pretreated with parthenolide (1 μg/ml) in the presence of DTT (dithiothreitol, 100 μM), 2-ME (2-mercaptoethanol, 50 μM), or Cys (L-cysteine, 150 μM), and were then stimulated with LPS (1 μg/ml). Cells were incubated for 30 min for antiphosphotyrosine immunoblot analysis (FIG. 6A) and 8h for COX-2 and IL-1α Western blot analyses (FIG. 6B). […] Whether parthenolide inhibits protein tyrosine phosphorylation by directly inhibiting PTKs or by inhibiting other target protein(s) that affect the activity of PTKs is not currently known.

[4] = test system: COX-2; test: Inhibition of the expression of COX-2 in LPS-stimulated macrophages (Table 1); format: cell-based; conditions: for IC50, inhibiting the expression of COX-2: IC50 determined at multiple dose levels; for inhibitory activity (COX-2 expression), in words: comparison among tested compounds
Method: Rat (Sprague-Dawley) alveolar macrophages were collected by broncho-alveolar lavage as described by Lee et al., J. Biol. Chem., vol.
Alveolar macrophages pretreated with aspirin were incubated with LPS (10 μg/ml) and various concentrations of parthenolide for 16h. The activity of de novo synthesized COX-2 was determined by measuring the levels of PGE2 produced from exogenous arachidonic acid. Activity of TNFα was determined by bioassay using L929 cells as described by Aggarwal et al., J. Biol. Chem., vol. […] Values in FIG. 2 are the means of triplicate samples for TNFα and duplicate samples for PGE2.

[5] = test system: tumor; conditions: cited from earlier work
[6] = test system: epidermal growth factor receptor; conditions: in vitro; cited from earlier work
[7] = test system: ERK-2; test: Kinase activity of ERK-2 in RAW 264.7 cells (in-gel kinase assay, MBP substrate); format: cell-based, murine; conditions: 3h pretreatment, LPS 1 μg/ml 30 min; FIG. 5
Method: as §1
(§6) This assay was performed according to the method described by Kameshita et al., Anal. Biochem., vol. 183, pp. 139-143 (1989) using myelin basic protein (MBP) as a substrate.
(§7) Parthenolide suppressed LPS-stimulated tyrosine phosphorylation of various proteins in RAW 264.7 cells as assessed by antiphosphotyrosine immunoblot, depicted in FIG. 5A. This inhibition was correlated with the suppressed expression of COX-2 and IL-1α. […] Therefore, the extent of tyrosine phosphorylation of JNK-1 was assessed by the electrophoretic mobility shift of phosphorylated JNK-1 as shown in FIG. 5B. […]

[8] = test system: ERK-2; test: Tyrosine phosphorylation of ERK-2 in RAW 264.7 cells (antiphosphotyrosine immunoblot); format: cell-based, murine; conditions: 3h pretreatment, LPS 1 μg/ml 30 min; FIG. 5A
Method: as §1, §5, §7

[9] = test system: ERK-1; test: Kinase activity of ERK-1 in RAW 264.7 cells (in-gel kinase assay, MBP substrate); format: cell-based, murine; conditions: 3h pretreatment, LPS 1 μg/ml 30 min; FIG. 5
Method: as §1, §6, §7

[10] = test system: ERK-1; test: Tyrosine phosphorylation of ERK-1 in RAW 264.7 cells (antiphosphotyrosine immunoblot); format: cell-based, murine; conditions: 3h pretreatment, LPS 1 μg/ml 30 min; FIG. 5A
Method: as §1, §5, §7

- IC50, inhibiting the expression of COX-2 [4]: 1.3 µg/mL
Compound: C=C1C(=O)O[C@@H]2[C@H]1CC[C@H](C)[C@]1(CCC(=O)O1)[C@@]2(C)O [Compound 8, Psilostachyin A]

- IC50, inhibiting the expression of COX-2 [4]: 1.6 µg/mL
Compound: C=C1C(=O)O[C@@H]2/C=C(\C)CC/C=C(\C)CC[C@@H]12 [Compound 9, Costunolide]

- IC50, inhibiting the expression of COX-2 [4]: 5.5 µg/mL
Compound: C[C@@H]1C[C@@H]2OC(=O)[C@]3(C)[C@H]2[C@@H](OC3(C)O)[C@]2(C)C(=O)C=C[C@@H]12 (stereo partly shown) [Compound 10, Tenulin]
- inhibitory activity (COX-2 expression), in words [4]: significantly less than that of compounds 1-9
- antitumor activity [5]: antitumor activity

- IC50, inhibiting the expression of COX-2 [4]: > 100 µg/mL
Compound: CC1=CCCC2(C)OC2C2OC(=O)C(C)C2CC1 (stereo not shown) [Compound 11, 11,13-dihydroparthenolide]
- inhibitory activity (COX-2 expression), in words [4]: loss of inhibitory activity

- IC50, inhibiting the expression of COX-2 [4]: > 100 µg/mL
Compound: CC1C(=O)OC2C1CCC1(C)OC1CCC1(C)OC21 (stereo not shown) [Compound 12, 1(10)epoxy-11,13-dihydroparthenolide]
- inhibitory activity (COX-2 expression), in words [4]: loss of inhibitory activity

Continued, compound first:

Compound: O[C@H](CS)[C@H](O)CS (racemic) [DTT, dithiothreitol]
- effect on parthenolide-inhibited expression of IL-1α [1]: recovered expression
- effect on parthenolide-inhibited expression of COX-2 [2]: recovered expression
- effect on parthenolide inhibition of LPS-induced activation of MAPKs [3]: abrogated

Compound: OCCS [Compound 2-ME, 2-mercaptoethanol]
- effect on parthenolide-inhibited expression of IL-1α [1]: recovered expression
- effect on parthenolide-inhibited expression of COX-2 [2]: recovered expression
- effect on parthenolide inhibition of LPS-induced activation of MAPKs [3]: abrogated

Compound: C=C1C(=O)O[C@@H]2/C=C(\C)[C@@H]3O[C@@H]3/C=C(/C(=O)OC)[C@H](O)[C@@H](OC(=O)[C@]3(C)O[C@@H]3C)[C@@H]12 [Compound 5, Melampodin A]
- IC50, inhibiting the expression of COX-2 [4]: 0.5 µg/mL
- inhibitory activity (COX-2 expression), in words [4]: activities similar to that of parthenolide

Compound: CC1=C2[C@H]3OC(=O)[C@@H](C)[C@@H]3CC[C@@]2(C)C=CC1=O [Compound 13, Santonin, reference compound]
- IC50, inhibiting the expression of COX-2 [4]: > 100 µg/mL

Compound: N[C@@H](CS)C(=O)O [Cys, L-cysteine]
- effect on parthenolide-inhibited expression of IL-1α [1]: recovered expression
- effect on parthenolide-inhibited expression of COX-2 [2]: recovered expression
- effect on parthenolide inhibition of LPS-induced activation of MAPKs [3]: abrogated

Compound: O=c1c(-c2ccc(O)cc2)coc2cc(O)cc(O)c12 [genistein]
- tyrosine-specific protein kinase activity of the EGF receptor [6]: inhibited

Compound: C=C1C(=O)O[C@@H]2C[C@@H](C)[C@@H]3C=CC(=O)[C@@]3(C)[C@@H](O)[C@H]12 [helenalin, reference compound]
- antitumor activity [5]: some antitumor activity

Compound: COC1C=CC=C(C)C(=O)NC2=CC(=O)C=C(C2=O)C(OC)C(C)CC(OC)C(OC)C(C)C=C(C)C1OC(N)=O (stereo not shown) [herbimycin A, reference compound]
- kinase activity of ERK-2 [7]: dose-dependent inhibition
- tyrosine phosphorylation of ERK-2 [8]: dose-dependent inhibition
- kinase activity of ERK-1 [9]: dose-dependent inhibition
- tyrosine phosphorylation of ERK-1 [10]: dose-dependent inhibition
- tyrosine phosphorylation of the MAPK subfamily ([3]; 3h pretreatment (herbimycin A 0.5 μg/ml), LPS 1 μg/ml 30 min): inhibited

Compound: Encelin [Compound 2]
- IC50, inhibiting the expression of COX-2 [4]: 0.1 µg/mL
- inhibitory activity (COX-2 expression), in words ([4]; listed as Encelin): most active compound tested
- inhibitory activity (COX-2 expression), in words ([4]; listed as encelin): highest inhibitory activity
